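Dose response: 5 concentrations. Exposure: 48 h. Format: 96-well plates. Endpoint: linear interpolation; highest concentration if not reached. The concentration for 50% growth inhibition is given as GI50.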 Active and inactive are the calls of the source. Cut-off read from the data, not from the text of the source: active = GI50 up to about 1.1 µM and inactive = higher.
Columns and labels:
Test in all cases: NCI-60 cell line screen, 48 h
A498 = tested on: A498
HOP-92 = tested on: HOP-92
HT-29 = tested on: HT-29
Hs-578T = tested on: Hs-578T
KM12 = tested on: KM12
MDA-MB-435 = tested on: MDA-MB-435
MOLT-4 = tested on: MOLT-4
Malme-3M = tested on: Malme-3M
NCI-H460 = tested on: NCI-H460
OVCAR-4 = tested on: OVCAR-4
PC-3 = tested on: PC-3
RPMI-8226 = tested on: RPMI-8226
SF-268 = tested on: SF-268
SF-295 = tested on: SF-295
SK-MEL-28 = tested on: SK-MEL-28
SK-OV-3 = tested on: SK-OV-3
CCRF-CEM = tested on: CCRF-CEM
UACC-62 = tested on: UACC-62

Structure (SMILES)	GI50 (A498)	GI50 (HOP-92)	GI50 (HT-29)	GI50 (Hs-578T)	GI50 (KM12)	GI50 (MDA-MB-435)	GI50 (MOLT-4)	GI50 (Malme-3M)	GI50 (NCI-H460)	GI50 (OVCAR-4)	GI50 (PC-3)	GI50 (RPMI-8226)	GI50 (SF-268)	GI50 (SF-295)	GI50 (SK-MEL-28)	GI50 (SK-OV-3)	GI50 (CCRF-CEM)	GI50 (UACC-62)
CC(=O)NC1C(OCc2ccccc2)OC(CO)C(O)C1OCC(=O)N1CCCC1C(=O)N[C@@H](CCC(=O)NCCCCNc1c2ccccc2nc2cccc([N+](=O)[O-])c12)C(N)=O (some centres not stated)	35.7 µM (inactive)	9.33 µM (inactive)	16.7 µM (inactive)	21.1 µM (inactive)	31.3 µM (inactive)	18 µM (inactive)	32.5 µM (inactive)	33.3 µM (inactive)	21 µM (inactive)	40.7 µM (inactive)	18.7 µM (inactive)	2.64 µM (inactive)	31.6 µM (inactive)	53.8 µM (inactive)	81.8 µM (inactive)	99.1 µM (inactive)		
N=c1c2sc3nc4ccccc4n3c2ncn1Cc1ccccc1	> 100 µM (inactive)	> 100 µM (inactive)		> 100 µM (inactive)	0.957 µM (active)	> 100 µM (inactive)	> 100 µM (inactive)	> 100 µM (inactive)		> 100 µM (inactive)	> 100 µM (inactive)	> 100 µM (inactive)	> 100 µM (inactive)	> 100 µM (inactive)	> 100 µM (inactive)	> 100 µM (inactive)	> 100 µM (inactive)	> 100 µM (inactive)
C#CCn1c(=O)c(C)cn(/C(=C\C(=O)OCC)C(=O)OCC)c1=O	17.2 µM (inactive)	2.12 µM (inactive)	1.72 µM (inactive)	24.8 µM (inactive)	30.1 µM (inactive)	5.16 µM (inactive)	2.65 µM (inactive)	2.1 µM (inactive)	2.2 µM (inactive)	2.69 µM (inactive)	13.5 µM (inactive)	2.8 µM (inactive)	16.1 µM (inactive)	19.5 µM (inactive)	2.03 µM (inactive)	28.6 µM (inactive)	0.435 µM (active)	10.1 µM (inactive)
COc1ccc(C(=O)C(Br)C(Br)C(=O)O)cc1 (configuration not stated)	> 100 µM (inactive)	> 100 µM (inactive)	15.6 µM (inactive)	35.2 µM (inactive)	52.1 µM (inactive)	36.1 µM (inactive)	14 µM (inactive)	21.4 µM (inactive)	36.3 µM (inactive)	53 µM (inactive)	56.5 µM (inactive)	20.4 µM (inactive)	32.8 µM (inactive)	> 100 µM (inactive)	40.4 µM (inactive)	33.7 µM (inactive)		47.9 µM (inactive)
Cn1c2ccccc2c2c3c(c4c5ccccc5n(C)c4c21)C(=O)N(Cc1ccccc1)C3=O	79.1 µM (inactive)	> 100 µM (inactive)	> 100 µM (inactive)	> 100 µM (inactive)	> 100 µM (inactive)	> 100 µM (inactive)	> 100 µM (inactive)	> 100 µM (inactive)	> 100 µM (inactive)	> 100 µM (inactive)	> 100 µM (inactive)	> 100 µM (inactive)		> 100 µM (inactive)	> 100 µM (inactive)	> 100 µM (inactive)	> 100 µM (inactive)	> 100 µM (inactive)
ClCCN(CCCl)c1ccc(/C=N/Nc2ccnc3ccccc23)cc1	20.3 µM (inactive)	1.64 µM (inactive)	0.736 µM (active)	2.23 µM (inactive)	1.58 µM (inactive)	1.53 µM (inactive)	1.13 µM (inactive)	1.49 µM (inactive)	2.73 µM (inactive)	1.85 µM (inactive)	1.45 µM (inactive)	1.32 µM (inactive)	2.65 µM (inactive)	1.31 µM (inactive)	1.63 µM (inactive)	1.58 µM (inactive)	1.49 µM (inactive)	1.75 µM (inactive)
CCN1CCC(O)(/C=C/c2ccc(Cl)c(Cl)c2)C(C(=O)/C=C/c2ccc(Cl)c(Cl)c2)C1 (configuration not stated)	0.891 µM (active)	0.621 µM (active)	0.689 µM (active)	0.271 µM (active)	0.713 µM (active)	0.877 µM (active)	0.243 µM (active)	1.05 µM (active)	0.76 µM (active)	0.632 µM (active)	0.329 µM (active)	0.136 µM (active)	1.06 µM (active)	0.713 µM (active)	0.881 µM (active)	1.72 µM (inactive)	0.306 µM (active)	0.973 µM (active)
COc1ccc(/C(Cl)=C(\CNc2ccccn2)c2ccccc2)cc1OC	> 100 µM (inactive)	> 100 µM (inactive)	> 100 µM (inactive)	> 100 µM (inactive)	> 100 µM (inactive)	> 100 µM (inactive)	> 100 µM (inactive)	> 100 µM (inactive)	> 100 µM (inactive)	> 100 µM (inactive)	> 100 µM (inactive)	> 100 µM (inactive)	> 100 µM (inactive)	> 100 µM (inactive)	> 100 µM (inactive)	> 100 µM (inactive)	> 100 µM (inactive)	> 100 µM (inactive)
CC(=O)OCCn1c(Cc2ccc([N+](=O)[O-])cc2)nn(C(C)=O)c1=O	> 100 µM (inactive)	> 100 µM (inactive)	> 100 µM (inactive)	> 100 µM (inactive)	> 100 µM (inactive)	> 100 µM (inactive)	> 100 µM (inactive)	> 100 µM (inactive)	> 100 µM (inactive)	> 100 µM (inactive)	> 100 µM (inactive)	> 100 µM (inactive)	> 100 µM (inactive)	> 100 µM (inactive)	> 100 µM (inactive)	> 100 µM (inactive)	> 100 µM (inactive)	> 100 µM (inactive)
Cn1cco/c1=N/c1ccc(Cl)c(Cl)c1	> 10 µM (inactive)	> 10 µM (inactive)	> 10 µM (inactive)	> 10 µM (inactive)	> 10 µM (inactive)	> 10 µM (inactive)	> 10 µM (inactive)	> 10 µM (inactive)	> 10 µM (inactive)	> 10 µM (inactive)	> 10 µM (inactive)	> 10 µM (inactive)	> 10 µM (inactive)	> 10 µM (inactive)	> 10 µM (inactive)	> 10 µM (inactive)	> 10 µM (inactive)	> 10 µM (inactive)
CCOC(=O)C(=CNc1ccc(S(N)(=O)=O)cc1)C(=O)OCC	> 100 µM (inactive)	> 100 µM (inactive)	> 100 µM (inactive)	> 100 µM (inactive)		> 100 µM (inactive)	> 100 µM (inactive)	> 100 µM (inactive)	> 100 µM (inactive)	> 100 µM (inactive)	> 100 µM (inactive)	> 100 µM (inactive)	> 100 µM (inactive)	> 100 µM (inactive)	> 100 µM (inactive)	> 100 µM (inactive)	> 100 µM (inactive)	
CN1CCC(n2[nH]c(-c3ccccc3)c(Cc3ccccc3)c2=O)CC1 [BENZPIPERYLON]	93.3 µM (inactive)	> 100 µM (inactive)	87.9 µM (inactive)	50.9 µM (inactive)	> 100 µM (inactive)	> 100 µM (inactive)	19.5 µM (inactive)	90.8 µM (inactive)	49.5 µM (inactive)	> 100 µM (inactive)	> 100 µM (inactive)	46.8 µM (inactive)	> 100 µM (inactive)	> 100 µM (inactive)	> 100 µM (inactive)	> 100 µM (inactive)	37.9 µM (inactive)	> 100 µM (inactive)
COc1ccc(-c2cs/c(=N\c3ccccc3)n2CC(O)c2ccc([N+](=O)[O-])cc2)cc1 (configuration not stated)	> 100 µM (inactive)	> 100 µM (inactive)	> 100 µM (inactive)	> 100 µM (inactive)	> 100 µM (inactive)	> 100 µM (inactive)	4.06 µM (inactive)	> 100 µM (inactive)	> 100 µM (inactive)	> 100 µM (inactive)	> 100 µM (inactive)	6.37 µM (inactive)	> 100 µM (inactive)	> 100 µM (inactive)	> 100 µM (inactive)	> 100 µM (inactive)	> 71.1 µM (inactive)	> 73.5 µM (inactive)
Cc1ccccc1/N=N/c1cc(C)c(/N=N/c2c(O)ccc3ccccc23)cc1C	> 100 µM (inactive)	> 100 µM (inactive)	> 100 µM (inactive)	55.8 µM (inactive)	> 100 µM (inactive)	> 100 µM (inactive)	> 100 µM (inactive)	> 100 µM (inactive)		> 100 µM (inactive)	> 100 µM (inactive)	> 100 µM (inactive)	> 100 µM (inactive)	> 100 µM (inactive)	> 100 µM (inactive)	> 100 µM (inactive)	> 100 µM (inactive)	> 100 µM (inactive)
O=C1c2cccnc2C(=O)C2C3C=CC(C3)C12 (configuration not stated)	21.2 µM (inactive)	12.9 µM (inactive)	27.2 µM (inactive)	9.66 µM (inactive)	14.5 µM (inactive)	2.25 µM (inactive)		15.1 µM (inactive)	3.49 µM (inactive)	5.01 µM (inactive)	10.2 µM (inactive)	2.49 µM (inactive)	10.2 µM (inactive)	12.6 µM (inactive)	15.2 µM (inactive)	18.3 µM (inactive)	1.18 µM (inactive)	3.37 µM (inactive)
CC(O)CNC1=CC(=O)C(=O)c2ccccc21 (configuration not stated)	27.7 µM (inactive)	19.5 µM (inactive)		22.8 µM (inactive)	19.2 µM (inactive)	11.3 µM (inactive)	23 µM (inactive)	4.15 µM (inactive)	14.3 µM (inactive)	13.2 µM (inactive)	22.3 µM (inactive)	18.2 µM (inactive)	16 µM (inactive)	13.5 µM (inactive)	19 µM (inactive)	34.5 µM (inactive)	37.9 µM (inactive)	12.9 µM (inactive)

From ChEMBL document CHEMBL1201862, “PubChem BioAssay data set” (2004)
